IC50 data for 23 compounds are collected here from US20150352108A1, “AMINO-PYRIMIDINE COMPOUNDS AS INHIBITORS OF TBK1 AND/OR IKK EPSILON” (Alzheimer's Institute of America, priority 2009, published 2015).

Each structure is given as a SMILES string. A value given as a limit tells only on which side of the number the result lay.

Usually IC50 stands for the concentration needed to halve the response being measured.

The assay addresses T1, IKKε (Homo sapiens, UniProt Q14164).
T1 construct: His-tag; made in house; host or cells: Sf9 insect cells
T1 sequence (Q14164 1-716): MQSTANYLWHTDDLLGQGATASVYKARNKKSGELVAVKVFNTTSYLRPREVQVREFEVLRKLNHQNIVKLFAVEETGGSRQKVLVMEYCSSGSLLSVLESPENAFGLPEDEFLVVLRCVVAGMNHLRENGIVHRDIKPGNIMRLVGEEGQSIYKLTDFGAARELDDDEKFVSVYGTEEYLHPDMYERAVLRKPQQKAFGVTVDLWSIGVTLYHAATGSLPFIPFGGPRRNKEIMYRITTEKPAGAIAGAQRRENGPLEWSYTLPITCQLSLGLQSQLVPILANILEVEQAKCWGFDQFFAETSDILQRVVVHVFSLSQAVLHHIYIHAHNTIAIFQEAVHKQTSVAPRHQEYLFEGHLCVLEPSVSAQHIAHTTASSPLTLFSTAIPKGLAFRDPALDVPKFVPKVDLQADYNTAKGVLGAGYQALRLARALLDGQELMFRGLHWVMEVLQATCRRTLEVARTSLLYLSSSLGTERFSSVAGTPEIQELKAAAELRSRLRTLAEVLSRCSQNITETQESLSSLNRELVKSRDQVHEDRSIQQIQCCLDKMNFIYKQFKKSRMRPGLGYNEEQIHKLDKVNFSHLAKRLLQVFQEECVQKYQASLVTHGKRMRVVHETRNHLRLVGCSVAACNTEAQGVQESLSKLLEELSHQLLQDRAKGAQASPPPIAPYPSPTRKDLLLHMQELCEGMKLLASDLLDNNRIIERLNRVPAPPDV
In words: In-vitro IKKε kinase assay ([γ33]ATP filter-plate). The assay is classed as biochemical. The settings on record: text bins; read-out: IC50 for inhibition of the kinase activity of IKKε. Summed up:
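Phosphorylation of casein or myelin basic protein was counted by P-81 filter capture after 30-45 min reactions stopped with phosphoric acid, with counts normalized to DMSO after background subtraction. ATP was twice Km: 60 μM for TBK1 and 32 μM for IKKε, plus [γ33]ATP. Sf9-expressed His-tag enzymes were used at normal/sensitized levels of 0.1/0.02 μg/ml (TBK1) and 0.1/0.015 μg/ml (IKKε).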
On to `COc1cc(Nc2nccc(-c3ccc(OC)c(C#N)c3)n2)cc(C(=O)N2CC[C@@H](O)C2)c1` [compound 382, 5-{2-[(3-{[(3R)-3-Hydroxypyrrolidin-1-yl]carbonyl}-5-methoxyphenyl)amino]pyrimidin-4-yl}-2-methoxybenzonitrile], for which the IC50 was in the range of 50 to 500 nM.
For `CN(C)c1cccc(Nc2nccc(-c3cccc(C#N)c3)n2)c1` [compound 379, 3-(2-{[3-(Dimethylamino)phenyl]amino}pyrimidin-4-yl)benzonitrile] the value was 50 to 500 nM.
For `N#Cc1cc(-c2ccnc(Nc3ccc(-c4ccncc4)cc3)n2)ccc1OC1CCOCC1` [compound 610, 5-(2-{[4-(Pyridin-4-yl)phenyl]amino}pyrimidin-4-yl)-2-(tetrahydro-2H-pyran-4-yloxy)benzonitrile] the value was < 5 nM; for `COc1ccc(-c2ccnc(Nc3ccc(OC)c(OC4CCN(C)CC4)c3)n2)cc1C#N` [Example 289, 2-Methoxy-5-[2-({4-methoxy-3-[(1-methylpiperidin-4-yl)oxy]phenyl}amino)pyrimidin-4-yl]benzonitrile], 50 to 500 nM.
As for `C[C@H](O)C(=O)NCCOc1ccc(-c2ccnc(Nc3ccc(N4CCOCC4)cc3)n2)cc1C#N` [Example 250, (2S)-N-{2-[2-cyano-4-(2-{[4-(morpholin-4-yl)phenyl]amino}pyrimidin-4-yl)phenoxy]ethyl}-2-hydroxypropanamide], the IC50 lay within 50 to 500 nM.
For `CC(C)C(=O)NCCOc1ccc(-c2ccnc(Nc3ccc(N4CCOCC4)cc3)n2)cc1C#N` [Example 153, N-{2-[2-cyano-4-(2-{[4-(morpholin-4-yl)phenyl]amino}pyrimidin-4-yl)phenoxy]ethyl}-2-methylpropanamide] the value was 50 to 500 nM.
As for `COc1cc(NC(=O)NCCN(C)C)cc(Nc2nccc(-c3ccc(OC)c(C#N)c3)n2)c1` [compound 360, 1-(3-{[4-(3-Cyano-4-methoxyphenyl)pyrimidin-2-yl]amino}-5-methoxyphenyl)-3-[2-(dimethylamino)ethyl]urea], the figure is 50 to 500 nM.
With `N#Cc1cc(-c2ccnc(Nc3cccc(-c4ccncc4)c3)n2)ccc1OC1CCOCC1` [compound 573, 5-(2-{[3-(Pyridin-4-yl)phenyl]amino}pyrimidin-4-yl)-2-(tetrahydro-2H-pyran-4-yloxy)benzonitrile], the IC50 is < 5 nM.
For `CN1CCN(CC(=O)N2CCC(Oc3ccc(-c4ccnc(Nc5ccc(N6CCOCC6)cc5)n4)cc3C#N)CC2)CC1` [Example 240, 2-({1-[(4-methylpiperazin-1-yl)acetyl]piperidin-4-yl}oxy)-5-(2-{[4-(morpholin-4-yl)phenyl]amino}pyrimidin-4-yl)benzonitrile] the value was 50 to 500 nM; for `CN1CCN(c2ccc(Nc3nccc(-c4cc(C#N)cc(OCc5ccccc5)c4)n3)cc2)CC1` [Example 244, 3-(Benzyloxy)-5-(2-{[4-(4-methylpiperazin-1-yl)phenyl]amino}pyrimidin-4-yl)benzonitrile], 50 to 500 nM.
For `COc1ccc(Nc2nccc(-c3cccc(C#N)c3)n2)cc1OC` [compound 352, 3-{2-[(3,4-Dimethoxyphenyl)amino]pyrimidin-4-yl}benzonitrile] the value was 5 to 50 nM; for `CC(=O)N1CCC(CCOc2ccc(-c3ccnc(Nc4ccc(N5CCOCC5)cc4)n3)cc2C#N)CC1` [Example 156, 2-[2-(1-acetylpiperidin-4-yl)ethoxy]-5-(2-{[4-(morpholin-4-yl)phenyl}amino}pyrimidin-4-yl)benzonitrile], 5 to 50 nM; for `COc1cc(NC(C)=O)cc(Nc2nccc(-c3ccc(OC)c(C#N)c3)n2)c1` [Example 279, N-(3-{[4-(3-Cyano-4-methoxyphenyl)pyrimidin-2-yl]amino}-5-methoxyphenyl) acetamide], 5 to 50 nM.
For the compound `CC(C)C(=O)Nc1ccc(-c2ccnc(Nc3ccc(OCCCN4CCOCC4)cc3)n2)cc1C#N` [compound 430, N-{2-cyano-4-[2-({4-[3-(morpholin-4-yl)propoxy]phenyl}amino)pyrimidin-4-yl]phenyl}-2-methylpropanamide], the IC50 lay within 5 to 50 nM.
For `COc1ccc(Nc2nccc(-c3cccc(C#N)c3)n2)cc1` [compound 319, 3-{2-[(4-Methoxyphenyl)amino]pyrimidin-4-yl}benzonitrile] the value was 50 to 500 nM.
In the case of `N#Cc1cc(-c2ccnc(Nc3ccc(N4CCOCC4)cc3)n2)ccc1SC1CCCCC1` [Example 137, 2-(cyclohexylsulfanyl)-5-(2-{[4-(morpholin-4-yl)phenyl]amino}pyrimidin-4-yl)benzonitrile], the IC50 lay in the range of 50 to 500 nM.
As for `N#Cc1cc(-c2ccnc(Nc3ccc(-c4cn[nH]c4)cc3)n2)ccc1OC1CCOCC1` [compound 579, 5-(2-{[4-(1H-Pyrazol-4-yl)phenyl]amino}pyrimidin-4-yl)-2-(tetrahydro-2H-pyran-4-yloxy)benzonitrile], the figure is < 5 nM; as for `COc1ccc(-c2ccnc(Nc3ccccc3)n2)cc1C#N` [compound 299, 2-Methoxy-5-[2-(phenylamino)pyrimidin-4-yl]benzonitrile], 5 to 50 nM.
As for `CC(C)(O)C(=O)N1CCC(Oc2ccc(-c3ccnc(Nc4ccc(N5CCOCC5)cc4)n3)cc2C#N)CC1` [Example 74, 2-{[1-(2-Hydroxy-2-methylpropanoyl)piperidin-4-yl]oxy}-5-(2-{[4-(morpholin-4-yl)phenyl]amino}pyrimidin-4-yl)benzonitrile], the figure is 50 to 500 nM; as for `N#Cc1cc(-c2ccnc(Nc3cccc(Cn4cnnc4)c3)n2)ccc1OC1CCOCC1` [compound 595, 2-(Tetrahydro-2H-pyran-4-yloxy)-5-(2-{[3-(4H-1,2,4-triazol-4-ylmethyl)phenyl]amino}pyrimidin-4-yl)benzonitrile], < 5 nM.
As for `Cn1cc(-c2ccc(Nc3nccc(-c4ccc(OC5CCOCC5)c(C#N)c4)n3)cc2)cn1` [compound 584, 5-(2-{[4-(1-Methyl-1H-pyrazol-4-yl)phenyl]amino}pyrimidin-4-yl)-2-(tetrahydro-2H-pyran-4-yloxy)benzonitrile], the IC50 was < 5 nM.
For `COC(=O)C(C)(C)COc1ccc(-c2ccnc(Nc3ccc(N4CCOCC4)cc3)n2)cc1C#N` [Example 84, methyl 3-[2-cyano-4-(2-{[4-(morpholin-4-yl)phenyl]amino}pyrimidin-4-yl)phenoxy]-2,2-dimethylpropanoate] the value was 50 to 500 nM; for `COc1ccc(-c2ccnc(Nc3cccc(NC(=O)NC4CCCC4)c3)n2)cc1C#N` [compound 348, 1-(3-{[4-(3-Cyano-4-methoxyphenyl)pyrimidin-2-yl]amino}phenyl)-3-cyclopentylurea], 50 to 500 nM.
